Experimental data from patent US12447160B2, “Topical treatment of wounds with statins and cholesterol for scar reduction” (Northwestern University, priority 2017, dated 2025).
One block for each compound: values may come before it.

Assays:
[1] = Solubility of statins in the topical vehicle / microemulsion system; format: physicochemical
Excerpt: Transdermal penetration is the critical limitation in topical application. […] The stratum corneum is hydrophobic and a barrier for any topically applied reagent, and so hydrophobic statins should have increased penetration^18. […] Dosing schedules were chosen based upon in vitro dosing necessary to interfere with CTGF expression^11-13,22,23, and extrapolated to animal models based upon our experience with dose response curves for growth factors in our rabbit ear model^24.

CTGF mRNA = assay: Quantification of CTGF mRNA expression in dermal scar tissue (qPCR); format: in vivo, New Zealand White rabbits; conditions: high-dose (10%) simvastatin topical, mean±SEM, p<0.01
Procedure: (§1) Total RNA was extracted from dermal scar tissue of high-dose simvastatin topical treatment and control scars using TRI reagent (Sigma-Aldrich, St. Louis, MO), and contaminated DNA was removed with Turbo DNA-free kit (Ambion, Austin, TX). The cDNA was synthesized from one μg of total RNA by superscript II reverse transcriptase (Invitrogen, Grand Island, NY) with 100 ng of random primers in 20 μl of volume. Synthesized cDNA was quantified in a sequence detection system (ABI StepOnePlus; Applied Biosystems, Foster City, CA) using SYBR green and specific primers of CTGF and collagen 1A1, and 18 S rRNA was set as endogenous control. The sequence of primers is as followed: CTGF (5′-CTTCTGTCGGCTGGAGAAAC-3′ (SEQ ID NO:1) & 5′-TTAGCCCGGTACGTCTTCAC-3′ (SEQ ID NO:2)); Collagen 1A1: (5′-TAAGAGCTCCAAGGCCAAGA-3′(SEQ ID NO:3) & 5′-TGTTCTGAGAGGCGTGATTG-3′ (SEQ ID NO:4)); Glyceraldehyde 3-phosphate dehydrogenase (5′-AGGTCATCCACGACCACTTC-3′ (SEQ ID NO:5) & 5′-GTGAGTTTCCCGTTCAGCTC-3′ (SEQ ID NO:6)).
(§2) For statistical analysis of histological and molecular analysis results, Student's paired t test was applied to see if there is a difference between treatment and control group, p<0.05 was used as significant. All values were represented as mean±standard error.

Collagen 1A1 mRNA = assay: Quantification of Collagen 1A1 mRNA expression in dermal scar tissue (qPCR); format: in vivo, New Zealand White rabbits; conditions: high-dose (10%) simvastatin topical, mean±SEM, p<0.01
Procedure: as §1, §2

hypertrophic scar = assay: Rabbit ear hypertrophic scar model, scar elevation index (SEI) by histomorphometry; format: in vivo, New Zealand White rabbits

Solubility in the vehicle tested [1]: limited solubility
SMILES: CC[C@H](C)C(=O)O[C@H]1C[C@@H](C)C=C2C=C[C@H](C)[C@H](CC[C@@H]3C[C@@H](O)CC(=O)O3)[C@H]21 [lovastatin]

SMILES: CCC(C)(C)C(=O)O[C@H]1C[C@@H](C)C=C2C=C[C@H](C)[C@H](CC[C@@H]3C[C@@H](O)CC(=O)O3)[C@H]21 [simvastatin]
mRNA expression of CTGF compared to vehicle control (CTGF mRNA): 53.8±8.0%
mRNA expression of Collagen 1A1 compared to vehicle control (Collagen 1A1 mRNA): 48.5±14%

SMILES: CC(C)CCC[C@@H](C)[C@H]1CC[C@H]2[C@@H]3CC=C4C[C@@H](O)CC[C@]4(C)[C@H]3CC[C@]12C [cholesterol]
Effect of cholesterol on reducing scarring (hypertrophic scar; topical cholesterol in vehicle): mild, not statistically effect

SMILES: CC[C@H](C)C(=O)O[C@H]1C[C@H](O)C=C2C=C[C@H](C)[C@H](CC[C@@H](O)C[C@@H](O)CC(=O)O)[C@H]21 [pravastatin]
Scar elevation index (SEI) (hypertrophic scar; intradermal 100 μl 10 μM pravastatin in PBS per wound at POD 15, 18, 21, harvest POD 28, mean±standard error, saline control 1.71±0.08, p=0.0009): 1.55±0.07
